In US20060210584A1, “Method for preparing citrinin-free Monascus biomass and use of citrinin-free Monascus biomass” (priority 2005, published 2006):

What was measured:
[1] = tested on: microsomal lipid peroxidation; test: Inhibition of microsomal lipid peroxidation (MDA-TBA); type: biochemical; conditions: rat liver microsomes, 10 μM FeSO4 and 0.1 mM ascorbic acid, 37° C. 60 min; aqueous extract
Procedure: (§1) A freeze-dried sample of Example 1 was weighed and made up to 100 mg/mL in distilled water. The solution was autoclaved at 121° C. for 15 min. The supernatant was harvested after centrifugation at 4° C. was stored at −20° C. A serial dilution was then made with the stock aqueous extract into a series of increasing concentrations of the extracts up to 100 mg/mL solution. For the assay of the scavenging of DPPH radicals, a methanolic extract (membrane-filtered; 0.45 μm membrane, Acrodisc 4CR, PTEE) (replacing the solvent water with methanol and procedure stated in the first sentence) was used instead.
Normal rats were sacrificed by cervical dislocation. The liver of the rats was rapidly homogenized in 0.25M of an ice-cold sucrose solution and the resultant solution was centrifuged at 12,000×g for 20 min at 4° C. The supernatant obtained was centrifuged at 15,000×g for 60 min at 4° C. […]
The microsomes (200-300 μg/mL) were incubated at 37° C. for 60 min with the extract sample of Monascus biomass at variable concentrations, 10 μM FeSO4 and 0.1 mM ascorbic acid in 1.0 mL of a phosphate buffered saline (PBS, 0.25M, pH7.4). […] After centrifugation of precipitated protein, the color reaction of MDA-TBA complex was detected at OD 532 nm. […]
where A was the absorbance (OD532) of the negative control, and A1 was that of the tested sample.

[2] = Reducing power (potassium ferricyanide); type: biochemical; conditions: absorbance 700 nm
Procedure: as §1
2.5 mL of 1% potassium ferricyanide [K3Fe(CN)6] was added to 1.0 mL of an aqueous Monascus extract of variable concentrations (prepared as stated above). The resultant mixture was incubated at 50° C. for 20 min. 2.5 mL of trichloracetic acid (TCA, 10%) were added to the mixture. 2.5 mL of the resultant solution were mixed with 2.5 mL of distilled water and 0.5 mL of FeCl3 solution (0.1%). The absorbance was measured at 700 nm. Increased absorbance of the reaction mixture indicated an increase of reducing power. Vitamin C was used as a positive control in this experiment.

[3] = Scavenging of superoxide radicals (PMS-NADH/NBT); type: biochemical; conditions: PMS-NADH system, NBT, OD 560 nm; aqueous extract
Procedure: as §1
Superoxide radicals were generated in a PMS-NADH [phenazin methosulfate (PMS)-β-nicotinamide adenine dinucleotide (reduced from, NADH)] system by oxidation of NADH and assayed by the reduction of nitroblue tetrazolium (NBT). The superoxide radicals were generated in 3 mL of Tris-HCl buffer (16 mM, pH8.0), which contained 78 μM NADH, 50 μM NBT, 10 μM PMS and Monascus extracts at different concentrations to be tested. The color reaction between superoxide radicals and NBT was detected at OD 560 nm. L-ascorbic acid was used as a positive control. The inhibition rate (%) was calculated using the following formula: Inhibition rate (%)=(A−A1)/A×100%
where A was the absorbance of a negative control (distilled water), and A1 was the absorbance of the tested sample.

mouse = conditions: cited from earlier work
[4] = Scavenging of DPPH radicals; type: biochemical; conditions: methanolic extract; absorbance 515 nm, 30 s
Procedure: as §1
1.8 mL of a methanolic solution of DPPH (6×10^−5M 2,2-diphenyl-1-picrylhydrazyl) was added to 0.2 mL of a methanolic Monascus extract of variable concentrations (prepared as described above). The absorbance of the reaction mixture was measured at 515 nm exactly 30s after the DPPH solution was added. Vitamin E and methanol were used as positive and negative controls, respectively.
The inhibition rate (%) was calculated using the following formula: Inhibition rate (%)=(A−A1)/A×100%
where A was the absorbance of the negative control, and A1 was that of the tested sample.

Compound: O=C1O[C@H]([C@@H](O)CO)C(O)=C1O [Vitamin C, L-ascorbic acid]
- effective concentration giving 50% inhibition of microsomal lipid peroxidation [1]: 0.1 mg/mL
- reducing power, concentration range of action [2]: less than 1 mg/mL
- effective concentration giving 50% inhibition, scavenging of superoxide radicals [3]: 1.5 mg/mL

Compound: CC1=C2C(=CO[C@H](C)[C@H]2C)C(O)=C(C(=O)O)C1=O [citrinin]
- LD50 (lethal dose causing decrease of 50% population) (mouse): 35 mg/kg

Compound: Vitamin E
- effective concentration to give 50% inhibition, scavenging of DPPH radicals [4]: 1 mg/mL
